Experimental data reported in US9790178B2, “Pyrrolidinyl urea, thiourea, guanidine and cyanoguanidine compounds as TrkA kinase inhibitors” (Array BioPharma Inc., priority 2012, dated 2017).

Experiments:
Assay type in all cases: biochemical
AKT1 = target: T1, AKT1 (Homo sapiens, UniProt P31749); assay: KinaseProfiler off-target kinase profiling; conditions: 10 μM, ATP near Km
T1 construct: purchased Millipore, Inc. (KinaseProfiler service)
Description: (§1) A representative compound of the invention (Example 20) was tested for off-target kinase activity at a concentration of 10 μM by Millipore, Inc. in their KinaseProfiler™ service against all the kinases available in their full kinase panel. The compound was run in duplicate at a concentration of ATP near the Km for each individual kinase according to Millipore's specifications. The results are shown in Table B. Data are reported as percent of control (POC) and are the average of the two replicates.

BrSK1 = target: T2, BrSK1 (Homo sapiens, UniProt Q8TDC3); assay: KinaseProfiler off-target kinase profiling; conditions: 10 μM, ATP near Km
T2 construct: purchased Millipore, Inc. (KinaseProfiler service)
Description: as §1

CAMK2g = target: T3, CAMK2g (Homo sapiens, UniProt Q13555); assay: KinaseProfiler off-target kinase profiling; conditions: 10 μM, ATP near Km
T3 construct: purchased Millipore, Inc. (KinaseProfiler service)
Description: as §1

CDK3/cyclinE = target: T4, CDK3/cyclinE (Homo sapiens, UniProt Q00526); assay: KinaseProfiler off-target kinase profiling; conditions: 10 μM, ATP near Km
T4 construct: purchased Millipore, Inc. (KinaseProfiler service)
T4 sequence (Q00526 whole entry): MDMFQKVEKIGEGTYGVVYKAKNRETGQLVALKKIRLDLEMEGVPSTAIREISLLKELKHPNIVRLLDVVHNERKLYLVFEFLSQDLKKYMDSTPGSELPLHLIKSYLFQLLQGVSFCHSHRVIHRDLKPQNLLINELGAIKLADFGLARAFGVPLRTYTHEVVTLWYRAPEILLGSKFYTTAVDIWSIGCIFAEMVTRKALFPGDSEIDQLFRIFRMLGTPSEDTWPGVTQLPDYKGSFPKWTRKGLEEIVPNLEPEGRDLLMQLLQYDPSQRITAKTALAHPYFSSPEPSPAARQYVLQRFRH
T4 sequence (P24864 whole entry partner): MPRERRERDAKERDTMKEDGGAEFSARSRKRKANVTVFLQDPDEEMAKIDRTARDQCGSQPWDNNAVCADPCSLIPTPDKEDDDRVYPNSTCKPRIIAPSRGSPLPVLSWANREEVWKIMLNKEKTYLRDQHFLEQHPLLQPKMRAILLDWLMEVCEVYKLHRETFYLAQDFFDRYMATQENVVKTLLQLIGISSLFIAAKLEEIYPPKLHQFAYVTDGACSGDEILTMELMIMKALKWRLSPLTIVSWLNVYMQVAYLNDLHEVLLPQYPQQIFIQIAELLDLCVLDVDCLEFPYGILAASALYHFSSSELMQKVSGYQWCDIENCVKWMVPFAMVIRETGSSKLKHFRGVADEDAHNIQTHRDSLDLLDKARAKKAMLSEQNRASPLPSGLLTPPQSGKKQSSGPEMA
Description: as §1

DAPK1 = target: T5, DAPK1 (Homo sapiens, UniProt P53355); assay: KinaseProfiler off-target kinase profiling; conditions: 10 μM, ATP near Km
T5 construct: purchased Millipore, Inc. (KinaseProfiler service)
Description: as §1

EGFR = target: T6, EGFR (Homo sapiens, UniProt P00533); assay: KinaseProfiler off-target kinase profiling; conditions: 10 μM, ATP near Km
T6 construct: purchased Millipore, Inc. (KinaseProfiler service)
Description: as §1

ERK2 = target: T7, ERK2 (Homo sapiens, UniProt P28482); assay: KinaseProfiler off-target kinase profiling; conditions: 10 μM, ATP near Km
T7 construct: purchased Millipore, Inc. (KinaseProfiler service)
Description: as §1

EphA8 = target: T8, EphA8 (Homo sapiens, UniProt P29322); assay: KinaseProfiler off-target kinase profiling; conditions: 10 μM, ATP near Km
T8 construct: purchased Millipore, Inc. (KinaseProfiler service)
T8 sequence (P29322 28-1005): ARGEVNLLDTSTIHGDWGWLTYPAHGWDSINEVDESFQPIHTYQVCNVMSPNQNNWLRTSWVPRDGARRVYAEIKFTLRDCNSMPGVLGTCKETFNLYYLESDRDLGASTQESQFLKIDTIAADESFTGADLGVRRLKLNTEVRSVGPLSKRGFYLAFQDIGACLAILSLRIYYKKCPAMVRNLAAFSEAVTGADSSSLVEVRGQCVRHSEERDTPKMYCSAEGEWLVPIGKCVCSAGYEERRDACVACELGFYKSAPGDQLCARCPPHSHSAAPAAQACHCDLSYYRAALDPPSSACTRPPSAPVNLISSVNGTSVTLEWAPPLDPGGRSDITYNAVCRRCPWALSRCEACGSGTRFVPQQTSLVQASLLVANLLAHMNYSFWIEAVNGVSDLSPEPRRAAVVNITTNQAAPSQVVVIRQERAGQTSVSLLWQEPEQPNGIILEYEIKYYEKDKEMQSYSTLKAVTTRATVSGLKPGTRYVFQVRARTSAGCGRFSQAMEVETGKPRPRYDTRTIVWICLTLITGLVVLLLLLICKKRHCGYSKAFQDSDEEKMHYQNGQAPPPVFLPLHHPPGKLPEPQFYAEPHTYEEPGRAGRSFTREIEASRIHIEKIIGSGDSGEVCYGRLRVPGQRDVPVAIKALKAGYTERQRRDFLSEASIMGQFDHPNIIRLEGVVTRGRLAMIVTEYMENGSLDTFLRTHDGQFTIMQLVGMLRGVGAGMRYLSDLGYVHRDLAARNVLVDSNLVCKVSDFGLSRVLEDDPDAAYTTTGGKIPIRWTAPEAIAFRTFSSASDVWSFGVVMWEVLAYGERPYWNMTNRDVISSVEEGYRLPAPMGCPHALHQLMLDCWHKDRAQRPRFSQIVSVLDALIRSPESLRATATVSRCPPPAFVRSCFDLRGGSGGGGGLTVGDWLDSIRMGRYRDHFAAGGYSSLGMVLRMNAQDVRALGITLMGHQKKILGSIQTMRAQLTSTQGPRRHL
Description: as §1

FGFR4 = target: T9, FGFR4 (Homo sapiens, UniProt P22455); assay: KinaseProfiler off-target kinase profiling; conditions: 10 μM, ATP near Km
T9 construct: purchased Millipore, Inc. (KinaseProfiler service)
Description: as §1

Fer = target: T10, Fer (Homo sapiens, UniProt P16591); assay: KinaseProfiler off-target kinase profiling; conditions: 10 μM, ATP near Km
T10 construct: purchased Millipore, Inc. (KinaseProfiler service)
Description: as §1

Fgr = target: T11, Fgr (Homo sapiens, UniProt P09769); assay: KinaseProfiler off-target kinase profiling; conditions: 10 μM, ATP near Km
T11 construct: purchased Millipore, Inc. (KinaseProfiler service)
Description: as §1

Flt3 = target: T12, Flt3 (Homo sapiens, UniProt P36888); assay: KinaseProfiler off-target kinase profiling; conditions: 10 μM, ATP near Km
T12 construct: purchased Millipore, Inc. (KinaseProfiler service)
T12 sequence (P36888 27-993): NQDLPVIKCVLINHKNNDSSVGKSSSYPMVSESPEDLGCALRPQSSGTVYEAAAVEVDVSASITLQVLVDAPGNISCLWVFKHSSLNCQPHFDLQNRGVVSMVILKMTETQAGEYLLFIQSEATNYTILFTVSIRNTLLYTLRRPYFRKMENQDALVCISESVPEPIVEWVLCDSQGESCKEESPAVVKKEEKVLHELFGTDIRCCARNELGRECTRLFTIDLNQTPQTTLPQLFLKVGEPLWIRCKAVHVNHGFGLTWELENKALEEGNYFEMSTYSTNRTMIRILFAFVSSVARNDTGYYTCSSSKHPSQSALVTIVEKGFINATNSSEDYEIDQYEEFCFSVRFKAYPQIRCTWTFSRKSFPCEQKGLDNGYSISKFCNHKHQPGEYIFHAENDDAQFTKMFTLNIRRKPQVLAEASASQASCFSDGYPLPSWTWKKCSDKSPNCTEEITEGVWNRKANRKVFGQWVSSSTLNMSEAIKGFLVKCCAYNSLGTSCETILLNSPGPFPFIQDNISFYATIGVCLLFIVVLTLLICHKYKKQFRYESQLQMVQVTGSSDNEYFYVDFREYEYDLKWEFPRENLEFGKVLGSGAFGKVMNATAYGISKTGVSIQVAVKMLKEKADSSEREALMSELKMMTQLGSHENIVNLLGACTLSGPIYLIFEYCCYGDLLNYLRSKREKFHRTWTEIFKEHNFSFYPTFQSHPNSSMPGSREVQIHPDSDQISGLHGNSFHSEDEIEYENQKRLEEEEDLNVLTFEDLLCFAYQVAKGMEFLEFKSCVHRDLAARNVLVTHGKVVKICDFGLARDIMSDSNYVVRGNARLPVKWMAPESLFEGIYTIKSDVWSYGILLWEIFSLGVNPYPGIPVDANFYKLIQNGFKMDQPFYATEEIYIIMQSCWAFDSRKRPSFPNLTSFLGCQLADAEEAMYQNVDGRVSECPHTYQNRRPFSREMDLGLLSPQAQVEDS
Description: as §1

Fms = target: T13, Fms (Homo sapiens, UniProt P07333); assay: KinaseProfiler off-target kinase profiling; conditions: 10 μM, ATP near Km
T13 construct: purchased Millipore, Inc. (KinaseProfiler service)
Description: as §1

IRAK1 = target: T14, IRAK1 (Homo sapiens, UniProt P51617); assay: KinaseProfiler off-target kinase profiling; conditions: 10 μM, ATP near Km
T14 construct: purchased Millipore, Inc. (KinaseProfiler service)
Description: as §1

ITK = target: T15, ITK (Homo sapiens, UniProt Q08881); assay: KinaseProfiler off-target kinase profiling; conditions: 10 μM, ATP near Km
T15 construct: purchased Millipore, Inc. (KinaseProfiler service)
Description: as §1

JAK2 = target: T16, JAK2 (Homo sapiens, UniProt O60674); assay: KinaseProfiler off-target kinase profiling; conditions: 10 μM, ATP near Km
T16 construct: purchased Millipore, Inc. (KinaseProfiler service)
Description: as §1

JNK1alpha1 = target: T17, JNK1alpha1 (Homo sapiens, UniProt P45983); assay: KinaseProfiler off-target kinase profiling; conditions: 10 μM, ATP near Km
T17 construct: purchased Millipore, Inc. (KinaseProfiler service)
Description: as §1

LIMK1 = target: T18, LIMK1 (Homo sapiens, UniProt P53667); assay: KinaseProfiler off-target kinase profiling; conditions: 10 μM, ATP near Km
T18 construct: purchased Millipore, Inc. (KinaseProfiler service)
Description: as §1

LKB1 = target: T19, LKB1 (Homo sapiens, UniProt Q15831); assay: KinaseProfiler off-target kinase profiling; conditions: 10 μM, ATP near Km
T19 construct: purchased Millipore, Inc. (KinaseProfiler service)
Description: as §1

Lyn = target: T20, Lyn (Homo sapiens, UniProt P07948); assay: KinaseProfiler off-target kinase profiling; conditions: 10 μM, ATP near Km
T20 construct: purchased Millipore, Inc. (KinaseProfiler service)
Description: as §1

MARK2 = target: T21, MARK2 (Homo sapiens, UniProt Q7KZI7); assay: KinaseProfiler off-target kinase profiling; conditions: 10 μM, ATP near Km
T21 construct: purchased Millipore, Inc. (KinaseProfiler service)
Description: as §1

MKK6 = target: T22, MKK6 (Homo sapiens, UniProt P52564); assay: KinaseProfiler off-target kinase profiling; conditions: 10 μM, ATP near Km
T22 construct: purchased Millipore, Inc. (KinaseProfiler service)
Description: as §1

MSK1 = target: T23, MSK1 (Homo sapiens, UniProt O75582); assay: KinaseProfiler off-target kinase profiling; conditions: 10 μM, ATP near Km
T23 construct: purchased Millipore, Inc. (KinaseProfiler service)
T23 sequence (O75582 whole entry): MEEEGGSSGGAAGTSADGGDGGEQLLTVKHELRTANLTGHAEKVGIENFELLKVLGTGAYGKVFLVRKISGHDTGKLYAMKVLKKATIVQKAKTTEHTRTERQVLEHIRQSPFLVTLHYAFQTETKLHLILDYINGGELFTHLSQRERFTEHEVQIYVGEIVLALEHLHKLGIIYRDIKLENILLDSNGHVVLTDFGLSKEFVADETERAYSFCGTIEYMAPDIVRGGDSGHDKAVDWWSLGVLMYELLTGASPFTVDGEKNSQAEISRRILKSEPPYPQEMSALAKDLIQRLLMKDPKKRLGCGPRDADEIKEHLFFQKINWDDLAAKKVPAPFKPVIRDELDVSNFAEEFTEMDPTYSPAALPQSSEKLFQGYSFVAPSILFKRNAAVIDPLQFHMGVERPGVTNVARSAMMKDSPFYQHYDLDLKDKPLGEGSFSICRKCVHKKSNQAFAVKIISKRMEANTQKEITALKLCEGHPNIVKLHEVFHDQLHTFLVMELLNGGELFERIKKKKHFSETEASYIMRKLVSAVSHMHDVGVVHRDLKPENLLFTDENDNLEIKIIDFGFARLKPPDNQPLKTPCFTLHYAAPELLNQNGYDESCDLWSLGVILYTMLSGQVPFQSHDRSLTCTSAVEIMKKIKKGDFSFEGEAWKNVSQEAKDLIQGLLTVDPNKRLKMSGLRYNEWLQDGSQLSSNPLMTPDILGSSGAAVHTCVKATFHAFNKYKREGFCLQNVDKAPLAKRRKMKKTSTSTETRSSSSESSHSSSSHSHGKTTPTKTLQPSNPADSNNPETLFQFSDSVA
Description: as §1

PAK5 = target: T24, PAK5 (Homo sapiens, UniProt Q9P286); assay: KinaseProfiler off-target kinase profiling; conditions: 10 μM, ATP near Km
T24 construct: purchased Millipore, Inc. (KinaseProfiler service)
Description: as §1

PKCbetaII = target: T25, PKCbetaII (Homo sapiens, UniProt P05771); assay: KinaseProfiler off-target kinase profiling; conditions: 10 μM, ATP near Km
T25 construct: purchased Millipore, Inc. (KinaseProfiler service)
T25 sequence (P05771 1-673 isoform P05771-2): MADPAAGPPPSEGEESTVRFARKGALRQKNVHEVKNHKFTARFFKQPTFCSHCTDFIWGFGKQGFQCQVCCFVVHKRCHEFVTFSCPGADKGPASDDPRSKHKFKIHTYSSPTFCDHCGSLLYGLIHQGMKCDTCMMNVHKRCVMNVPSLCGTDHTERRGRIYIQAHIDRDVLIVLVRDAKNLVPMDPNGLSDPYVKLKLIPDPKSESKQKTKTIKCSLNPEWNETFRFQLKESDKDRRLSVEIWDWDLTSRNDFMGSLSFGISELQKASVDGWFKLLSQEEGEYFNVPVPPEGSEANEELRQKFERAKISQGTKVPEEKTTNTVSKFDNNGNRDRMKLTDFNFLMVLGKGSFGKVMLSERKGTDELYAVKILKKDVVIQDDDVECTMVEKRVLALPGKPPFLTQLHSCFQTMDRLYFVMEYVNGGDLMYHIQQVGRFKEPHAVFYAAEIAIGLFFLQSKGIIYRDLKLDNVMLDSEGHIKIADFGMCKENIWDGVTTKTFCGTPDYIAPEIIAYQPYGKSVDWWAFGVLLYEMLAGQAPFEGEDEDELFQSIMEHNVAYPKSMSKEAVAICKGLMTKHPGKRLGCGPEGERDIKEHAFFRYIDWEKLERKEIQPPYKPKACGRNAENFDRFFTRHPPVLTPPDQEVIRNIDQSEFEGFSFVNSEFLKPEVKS
Description: as §1

PKCmu = target: T26, PKCmu (Homo sapiens, UniProt Q15139); assay: KinaseProfiler off-target kinase profiling; conditions: 10 μM, ATP near Km
T26 construct: purchased Millipore (KinaseProfiler service)
Description: as §1

PTK5 = target: T27, PTK5 (Homo sapiens, UniProt P42685); assay: KinaseProfiler off-target kinase profiling; conditions: 10 μM, ATP near Km
T27 construct: purchased Millipore (KinaseProfiler service)
Description: as §1

PhKgamma2 = target: T28, PhKgamma2 (Homo sapiens, UniProt P15735); assay: KinaseProfiler off-target kinase profiling; conditions: 10 μM, ATP near Km
T28 construct: purchased Millipore, Inc. (KinaseProfiler service)
Description: as §1

Pim-1 = target: T29, Pim-1 (Homo sapiens, UniProt P11309); assay: KinaseProfiler off-target kinase profiling; conditions: 10 μM, ATP near Km
T29 construct: purchased Millipore, Inc. (KinaseProfiler service)
T29 sequence (P11309 whole entry): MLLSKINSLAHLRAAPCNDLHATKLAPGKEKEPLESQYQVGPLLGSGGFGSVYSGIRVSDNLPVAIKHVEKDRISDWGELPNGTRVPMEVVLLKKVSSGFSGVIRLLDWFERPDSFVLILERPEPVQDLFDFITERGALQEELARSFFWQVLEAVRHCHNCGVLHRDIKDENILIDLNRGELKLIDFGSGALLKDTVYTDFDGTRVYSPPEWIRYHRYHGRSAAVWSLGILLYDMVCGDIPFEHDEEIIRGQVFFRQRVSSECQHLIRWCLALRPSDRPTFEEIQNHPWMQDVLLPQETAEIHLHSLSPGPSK
Description: as §1

Rsk3 = target: T30, Rsk3 (Homo sapiens, UniProt Q15349); assay: KinaseProfiler off-target kinase profiling; conditions: 10 μM, ATP near Km
T30 construct: purchased Millipore (KinaseProfiler service)
Description: as §1

SGK1 = target: T31, SGK1 (Homo sapiens, UniProt O00141, S422D); assay: KinaseProfiler off-target kinase profiling; conditions: 10 μM, ATP near Km
T31 construct: purchased Millipore, Inc. (KinaseProfiler service)
Description: as §1

SRC = target: T32, SRC (Homo sapiens, UniProt P12931); assay: KinaseProfiler off-target kinase profiling; conditions: 10 μM, ATP near Km
T32 construct: purchased Millipore, Inc. (KinaseProfiler service)
Description: as §1

SRPK2 = target: T33, SRPK2 (Homo sapiens, UniProt P78362); assay: KinaseProfiler off-target kinase profiling; conditions: 10 μM, ATP near Km
T33 construct: purchased Millipore, Inc. (KinaseProfiler service)
Description: as §1

STK33 = target: T34, STK33 (Homo sapiens, UniProt Q9BYT3); assay: KinaseProfiler off-target kinase profiling; conditions: 10 μM, ATP near Km
T34 construct: purchased Millipore, Inc. (KinaseProfiler service)
Description: as §1

TBK1 = target: T35, TBK1 (Homo sapiens, UniProt Q9UHD2); assay: KinaseProfiler off-target kinase profiling; conditions: 10 μM, ATP near Km
T35 construct: purchased Millipore, Inc. (KinaseProfiler service)
Description: as §1

VRK2 = target: T36, VRK2 (Homo sapiens, UniProt Q86Y07); assay: KinaseProfiler off-target kinase profiling; conditions: 10 μM, ATP near Km
T36 construct: purchased Millipore, Inc. (KinaseProfiler service)
Description: as §1

WNK2 = target: T37, WNK2 (Homo sapiens, UniProt Q9Y3S1); assay: KinaseProfiler off-target kinase profiling; conditions: 10 μM, ATP near Km
T37 construct: purchased Millipore, Inc. (KinaseProfiler service)
Description: as §1

eEF-2K = target: T38, eEF-2K (Homo sapiens, UniProt O00418); assay: KinaseProfiler off-target kinase profiling; conditions: 10 μM, ATP near Km
T38 construct: purchased Millipore, Inc. (KinaseProfiler service)
Description: as §1

p38gamma = target: T39, p38gamma (Homo sapiens, UniProt P53778); assay: KinaseProfiler off-target kinase profiling; conditions: 10 μM, ATP near Km
T39 construct: purchased Millipore, Inc. (KinaseProfiler service)
Description: as §1

[1] = system: off-target kinases (panel of about 230 other kinases); assay: KinaseProfiler full kinase panel, overall selectivity; conditions: 10 μM concentration
Description: as §1
Such a drug profile would represent a safer approach to treating pain, inflammation, cancer and certain skin diseases than has been previously reported.

T1 sequence (P31749 whole entry): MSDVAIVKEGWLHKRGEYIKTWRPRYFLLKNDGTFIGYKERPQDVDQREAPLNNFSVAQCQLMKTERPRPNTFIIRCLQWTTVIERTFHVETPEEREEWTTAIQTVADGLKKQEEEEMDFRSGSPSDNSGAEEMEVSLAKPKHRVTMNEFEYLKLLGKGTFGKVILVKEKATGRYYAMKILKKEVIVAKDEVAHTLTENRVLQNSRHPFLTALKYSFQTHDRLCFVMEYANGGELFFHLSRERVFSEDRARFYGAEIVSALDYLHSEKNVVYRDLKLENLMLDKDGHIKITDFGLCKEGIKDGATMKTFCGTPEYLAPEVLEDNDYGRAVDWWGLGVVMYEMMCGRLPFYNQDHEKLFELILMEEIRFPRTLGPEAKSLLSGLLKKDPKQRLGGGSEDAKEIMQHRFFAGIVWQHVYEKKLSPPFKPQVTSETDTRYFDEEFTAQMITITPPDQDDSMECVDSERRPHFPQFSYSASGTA

- Avg. POC (AKT1): 109 POC
- Avg. POC (BrSK1): 112.5 POC
- Avg. POC (CAMK2g): 113 POC
- Avg. POC (CDK3/cyclinE): 111 POC
- Avg. POC (DAPK1): 103 POC
- Avg. POC (EGFR): 107.5 POC
- Avg. POC (ERK2): 96 POC
- Avg. POC (EphA8): 98.5 POC
- Avg. POC (FGFR4): 90 POC
- Avg. POC (Fer): 91.5 POC
- Avg. POC (Fgr): 121 POC
- Avg. POC (Flt3): 110 POC
- Avg. POC (Fms): 87.5 POC
- Avg. POC (IRAK1): 109.5 POC
- Avg. POC (ITK): 122.5 POC
- Avg. POC (JAK2): 117 POC
- Avg. POC (JNK1alpha1): 105 POC
- Avg. POC (LIMK1): 103 POC
- Avg. POC (LKB1): 105 POC
- Avg. POC (Lyn): 104.5 POC
- Avg. POC (MARK2): 98 POC
- Avg. POC (MKK6): 83 POC
- Avg. POC (MSK1): 121 POC
- Avg. POC (PAK5): 105.5 POC
- Avg. POC (PKCbetaII): 106 POC
- Avg. POC (PKCmu): 100.5 POC
- Avg. POC (PTK5): 111 POC
- Avg. POC (PhKgamma2): 98.5 POC
- Avg. POC (Pim-1): 105 POC
- Avg. POC (Rsk3): 107.5 POC
- Avg. POC (SGK1): 119 POC
- Avg. POC (SRC): 107 POC
- Avg. POC (SRPK2): 100 POC
- Avg. POC (STK33): 109.5 POC
- Avg. POC (TBK1): 114 POC
- Avg. POC (VRK2): 117.5 POC
- Avg. POC (WNK2): 120 POC
- Avg. POC (eEF-2K): 108 POC
- Avg. POC (p38gamma): 105.5 POC
SMILES: COCCN1C[C@@H](NC(=O)Nc2c(-c3ccccc3)nc3c(C)nccn23)[C@H](c2ccc(F)c(F)c2)C1 [Example 20, 1-((3S,4R)-4-(3,4-difluorophenyl)-1-(2-methoxyethyl)pyrrolidin-3-yl)-3-(8-methyl-2-phenylimidazo[1,2-a]pyrazin-3-yl)urea]
- selectivity for TrkA (and TrkB) versus other kinases in the panel [1]: largely inactive against off-target kinases
